The results in this text go back to patent publication US10051857B2, “Formulation component” (SYNGENTA LIMITED, priority 2011, dated 2018).

Format in all cases: in vivo
The subject of assay [1] is Alopecurus myosuroides (ALOMY). As to the kind of experiment: Glasshouse adjuvant test with pinoxaden (Example 8). Particulars: pinoxaden 7.5 or 15 g/ha, adjuvant 0.2% v/v or none, 200 l/ha; growth stage 13; mean over two rates, three replicates, 14 and 21 days. On the procedure:
(§1) The adjuvant shown in example 1 was tested in a glasshouse against four weed species in combination with the herbicide pinoxaden. A 20% w/w stock emulsion of compound 1 was prepared additionally containing 2% w/w Gohsenol® GL03 and 2% w/w Pluronic® PE10500 as surfactants. Using this, an agrochemical composition was prepared containing 0.2% v/v of the adjuvant in a track sprayer and was applied at a volume of 200 liters per hectare. Pinoxaden was applied at either 7.5 or 15 grams of pesticide per hectare on each of the weed species. The weed species and their growth stage at spraying were Alopecurus myosuroides (ALOMY; growth stage 13), Avena fatua (AVEFA; growth stage 12); Lolium perenne (LOLPE; growth stage 13), Setaria viridis (SETVI; growth stage 14).
(§2) Each spray test was replicated three times. The efficacy of the herbicide was assessed visually and expressed as a percentage of the leaf area killed. Samples were assessed at time periods of 14 and 21 days following application. The results shown in Table 8 are mean averages over the two rates of pinoxaden, three replicates and the two assessment timings, and are compared to the efficacy of pinoxaden in the absence of adjuvant.

In another assay the test system is Lolium perenne (LOLPE). The description is as above. Particulars: pinoxaden 7.5 or 15 g/ha, adjuvant 0.2% v/v or none, 200 l/ha; growth stage 13; mean over two rates, three replicates, 14 and 21 days. The method, then:
as §1, §2

For another assay, the system named is Setaria viridis (SETVI). The assay is described as above. Particulars: pinoxaden 7.5 or 15 g/ha, adjuvant 0.2% v/v or none, 200 l/ha; growth stage 14; mean over two rates, three replicates, 14 and 21 days. The method, then: as §1, §2
Another assay concerns Avena fatua (AVEFA). Described as above. Particulars: pinoxaden 7.5 or 15 g/ha, adjuvant 0.2% v/v or none, 200 l/ha; growth stage 12; mean over two rates, three replicates, 14 and 21 days. On the procedure:
as §1, §2

The test system of assay [2] is four weed species (AMATE, BRADE, DIGSA, POLCO). As to the kind of experiment: Glasshouse adjuvant test with mesotrione (Example 6), mean across species. Particulars: mesotrione 45 or 90 g/ha, adjuvant 0.2% v/v or none.
The subject of assay [3] is Digitaria sanguinalis (DIGSA). In words: Glasshouse adjuvant test with mesotrione (Example 6). Particulars: mesotrione 45 or 90 g/ha, adjuvant 0.2% v/v or none, 200 l/ha; growth stage 14; mean over two rates, three replicates, 7, 14 and 21 days. The method, then: (§3) Compound 1 was tested in a glasshouse against four weed species using the herbicide mesotrione. A 20% w/w stock emulsion of compound 1 was prepared additionally containing 2% w/w Gohsenol® GL03 and 2% w/w Pluronic® PE10500 as surfactants. Using this, an agrochemical composition was prepared containing 0.2% v/v of the adjuvant in a track sprayer and was applied at a volume of 200 liters per hectare. Mesotrione was applied at either 45 or 90 grams of pesticide per hectare on each of the weed species. The weed species and their growth stage at spraying were Amaranthus tuberculatus (AMATE; growth stage 13/14), Brachiaria decumbens (BRADE; growth stage 13/14), Digitaria sanguinalis (DIGSA; growth stage 14), and Polygonum convolvulus (POLCO; growth stage 11/11.5).
(§4) Each test was replicated three times. The efficacy of the herbicide was assessed visually and expressed as a percentage of the leaf area killed. Samples were assessed at time periods of 7, 14 and 21 days following application. The results shown in Table 6 below are mean averages over the two rates of mesotrione, three replicates and the three assessment timings, and are compared to the efficacy of mesotrione in absence of adjuvant.

Assay [4] deals with Amaranthus tuberculatus (AMATE). Described as above. Particulars: mesotrione 45 or 90 g/ha, adjuvant 0.2% v/v or none, 200 l/ha; growth stage 13/14; mean over two rates, three replicates, 7, 14 and 21 days. On the procedure:
as §3, §4

Assay [5] relates to Brachiaria decumbens (BRADE). Described as above. Particulars: mesotrione 45 or 90 g/ha, adjuvant 0.2% v/v or none, 200 l/ha; growth stage 13/14; mean over two rates, three replicates, 7, 14 and 21 days. The method, then: as §3, §4
In assay [6] the test system is Polygonum convolvulus (POLCO). The description is as above. Particulars: mesotrione 45 or 90 g/ha, adjuvant 0.2% v/v or none, 200 l/ha; growth stage 11/11.5; mean over two rates, three replicates, 7, 14 and 21 days. The method, then: as §3, §4
For assay [7], the system named is four weed species (CHEAL, ABUTH, SETVI, XANST). In words: Glasshouse adjuvant test with fomesafen (Example 5), mean across species. Particulars: fomesafen 60 or 120 g/ha, adjuvant 0.2% v/v or none. On the procedure: Compound 1 (N, N-diethyl-3-methylbenzamide) was tested in a glasshouse against four weed species using the herbicide fomesafen. An agrochemical composition was prepared containing 0.2% v/v of the adjuvant in a track sprayer and was applied at a volume of 200 liters per hectare. Fomesafen was applied at either 60 or 120 grams of pesticide per hectare on each of the weed species. The weed species and their growth stage at spraying were Chenopodium album (CHEAL; growth stage 13/14), Abutilon theophrasti (ABUTH; growth stage 12), Setaria viridis (SETVI; growth stage 13), and Xanthium strumarium (XANST; growth stage 12).
Each spray test was replicated three times. The efficacy of the herbicide was assessed visually and expressed as a percentage of the leaf area killed. Samples were assessed at time periods of 7, 14 and 21 days following application. The results shown in Table 5 below are mean averages over the two rates of fomesafen, three replicates and the three assessment timings, and are compared to the efficacy of fomesafen in the absence of adjuvant.

Assay [8] deals with four weed species (ABUTH, CHEAL, DIGSA, SETVI). As to the kind of experiment: Glasshouse adjuvant test with nicosulfuron (Example 7), mean across species. Particulars: nicosulfuron 30 or 60 g/ha, adjuvant 0.2% v/v or none. The method, then:
Compound 1 was tested in a glasshouse against four weed species using the herbicide nicosulfuron. A 20% w/w stock emulsion of compound 1 was prepared additionally containing 2% w/w Gohsenol® GL03 and 2% w/w Pluronic® PE10500 as surfactants. Using this, an agrochemical composition was prepared containing 0.2% v/v of the adjuvant in a track sprayer and was applied at a volume of 200 liters per hectare. Nicosulfuron was applied at either 30 or 60 grams of pesticide per hectare on each of the weed species. The weed species and their growth stage at spraying were Abutilon theophrasti (ABUTH; growth stage 13), Chenopodium album (CHEAL; growth stage 14), Digitaria sanguinalis (DIGSA; growth stage 13), and Setaria viridis (SETVI; growth stage 13).
Each spray test replicated three times. The efficacy of the herbicide was assessed visually and expressed as a percentage of the leaf area killed. Samples were assessed at time periods of 14 and 21 days following application. The results shown in Table 7 below are mean averages over the two rates of nicosulfuron, three replicates and the two assessment timings, and are compared to the efficacy of nicosulfuron in the absence of an adjuvant.

Assay [9] has as its system four weed species (ALOMY, AVEFA, LOLPE, SETVI). In words: Glasshouse adjuvant test with pinoxaden (Example 8), mean across species. Particulars: pinoxaden 7.5 or 15 g/ha, adjuvant 0.2% v/v or none. The method, then: as §1, §2

For the compound `CCN(CC)C(=O)c1cccc(C)c1` [Compound 1, N, N-diethyl-3-methylbenzamide], the “Mean percentage kill ALOMY” value in assay [1] worked out at 22.5%. For the same compound, the “Mean percentage kill LOLPE” value with Lolium perenne (LOLPE) worked out at 20.8%. The “Mean percentage kill SETVI” value in the assay on Setaria viridis (SETVI) is recorded as 15.8%. The “Mean percentage kill AVEFA” value in the assay on Avena fatua (AVEFA) came to 29.2%. Further, the “Mean percentage kill, Mean across species” value came to 54.1% in assay [2], 42.6% in assay [7], 81.3% in assay [8] and 22.1% in assay [9]. For the same compound, in assay [3], the “Mean percentage kill DIGSA” value amounted to 28.6%. In assay [4], the “Mean percentage kill AMATE” value is recorded as 71.7%. Further, in assay [5], the “Mean percentage kill BRADE” value was 28.9%. Also, in [6], the “Mean percentage kill POLCO” value was determined as 87.2%.
